Results on 2 compounds are retold here after patent US9610299B2, “Compounds for the treatment of addiction” (Gilead Sciences, Inc., priority 2011, dated 2017).

Format in all cases: in vivo
Test [1] has as its system Male SD rats. The experiment in a line: Rat nicotine self administration, acute treatment. The conditions noted are these: for inhibition of number of nicotine infusions: vs vehicle. As for the experimental part: Male SD rats were trained to self administer i.v. nicotine (0.03 mg/kg/inj) daily (Monday to Friday) in standard operant chambers with retractable levers (MED Associates, Inc) as previously published (Levin et al., 2003; Levin et al., 2007). During the daily 45 min session, rats received 0.05 ml infusion of 0.03 mg/kg/infusion of nicotine every time the active lever was pressed. A cue light and tone turned on for 0.5 sec together with the activation of a pump that delivered the nicotine solution. Daily sessions were run for at least 10 days before the initiation of drug testing. Solutions of compounds of Example 2 and Example 5 were prepared fresh daily in Formulation 2B: 25% PEG400/5% Vit E TPGS/1% SLS/69% water with 0.5% Methocel) for oral dosing. Compound of Example 2 doses were administered in a counterbalanced design for testing 1 hr before each nicotine session. Every rat received all drug doses and vehicle in a randomly assigned order. The oral drug administrations were made twice per week.
Compound of Example 5 was tested in a study using 4 independent groups. Each group received either oral vehicle or 1 of the 3 doses of compound of Example 5 (5, 10 or 30 mg-eq/kg). […] The 5 mg/kg dose was ineffective.

Test [2] deals with Male SD rats. The experiment in a line: Rat nicotine self administration, chronic treatment. The note with it: for inhibition of number of nicotine infusions: vs vehicle. Here is the method: Upon completion of the acute compound of Example 5 treatment study, the same animals were used to test the effect of 7-day chronic oral administration of compound of Example 5 in the nicotine self administration model. Rats were treated orally with compound of Example 5 (5, 10 or 30 mg-eq/kg) or vehicle 1 hr before nicotine self administration session for 7 consecutive days. […] Similar to the acute treatment, the 5 mg-eq/kg dose was ineffective (FIG. 7). […] Animals in nicotine self administration studies had to reach pre defined criteria (e.g. rat strain, minimum number of nicotine infusions, consistent baseline nicotine self administration throughout the study, patent iv catheters, etc.) to be included in analysis.

For test [3], the system named is male Sprague Dawley (SD) rats. The experiment in a line: Rat cocaine cue reinstatement. The note with it: for inhibition of cocaine cue-induced reinstatement (lever presses): 1 hr before session, vs vehicle. Here is the method:
Training of male Sprague Dawley (SD) rats had 3 separate stages. First, during self administration, animals were trained to lever press for cocaine with presentation of concomitant cues associated with drug delivery. Rats that reached criteria for addiction were included in the study. Afterward, during cue extinction, cocaine-cue dependent behavior was extinguished. Lastly, during cocaine cue reinstatement, the effect of compounds was tested on lever presses upon cue presentation (FIG. 2).
Rats were trained to self administer i.v. cocaine (0.35 mg/kg/injection) daily (Monday to Friday) in standard operant chambers with retractable levers (Coulbourn Instruments, PA). During the daily 2 hr session, rats received a 0.05 ml infusion of 0.35 mg/kg cocaine every time the active lever was pressed. A cue light and tone turned on for 2 sec together with activation of a pump that delivered the cocaine solution. Rats were required to maintain an infusion rate of ≧20+ per day for at least 10 days before being moved to extinction training.
During extinction sessions lever presses no longer produced cocaine infusion and cue light/tone presentation was absent. Rats received a maximum of 15 extinction sessions.
On the next day after reaching extinction criteria, rats were treated orally with vehicle (Formulation 2B: 25% PEG400/5% Vit E TPGS/1% SLS/69% water with 0.5% Methocel) or drug (compound of Example 2 or compound of Example 5) before the cue reinstatement session. Cue reinstatement began with a tone and cue light. This 2 hr session was identical to the self-administration session (cue light and tone present upon active lever press) except that no cocaine was delivered. The number of active lever presses was compared to extinction lever responding. This is considered a measure of reinstatement. The next day, rats were returned to extinction sessions for at least 2 or 3 more sessions. Rats then received a second and last reinstatement session with an opposite treatment to the one received on the first reinstatement session (vehicle or drug treatment). […] The light/tone presentation triggers this response and it is interpreted as a measure of reinstatement even though cocaine is not available.

Regarding `O=C(NCc1ccc(-c2cc[nH]c(=O)c2)cc1)c1c(Cl)cccc1Cl` [Compound 2, 2,6-dichloro-N-[4-(2-oxo-1,2-dihydro-pyridin-4-yl)-benzyl]-benzamide], the “effect on number of nicotine infusions, in words” value in test [1] (1 mg/kg oral) and in test [1] (5 mg/kg oral) was “without effect” each time.

In the case of `O=C(NCc1ccc(-c2ccn(COP(=O)(O)O)c(=O)c2)cc1)c1c(Cl)cccc1Cl` [Compound 14, phosphoric acid mono-(4-{4-[(2,6-dichloro-benzoylamino)-methyl]-phenyl}-2-oxo-2H-pyridin-1-ylmethyl) ester], the “development of tolerance to the therapeutic effect” value in test [2] (7-day chronic oral administration (data not shown)) was “no development of tolerance”. Further, the “effect on number of nicotine infusions, in words” value in test [2] (7-day chronic oral, 5 mg-eq/kg) is “ineffective”; in test [1] (5 mg-eq/kg oral, independent groups), “ineffective”. Besides, the “inhibition of number of nicotine infusions” value in test [2] (7-day chronic oral, 10 mg-eq/kg) was 48%; in test [2] (7-day chronic oral, 30 mg-eq/kg), 62%; in test [1] (10 mg-eq/kg oral, independent groups), 51%; in test [1] (30 mg-eq/kg oral, independent groups), 68%. Moreover, the “inhibition of cocaine cue-induced reinstatement (lever presses)” value in test [3] (2.5 mg-eq/kg oral) turned out to be 30%; in test [3] (5 mg-eq/kg oral), 59%; in test [3] (10 mg-eq/kg oral), 55%; in test [3] (30 mg-eq/kg oral) it was 50%. Also, the “effect on cocaine cue reinstatement, in words” value in test [3] (2.5 mg-eq/kg oral, lowest dose tested) was “not significantly different from vehicle”.
